Source: patent publication US20090169538A1, “Methods of Treating or Preventing Tissue Damage Caused by Increased Blood Flow” (REGENERX BIOPHARMACEUTICALS, INC., priority 2006, published 2009)

Tested on: embryonic heart explants
Assay type: cell-based
Conditions: explants in presence of thymosin β4 with 100 nM wortmanin, p<0.05
Description: To test the effects of secreted thymosin β4 on cardiac cell migration, an embryonic heart explant system designed to assay cell migration and transformation events on a three-dimensional collagen gel was utilized. In this assay, explants of adjacent embryonic myocardium and endocardium from valve-forming regions were placed on a collagen gel with the endocardium adjacent to the collagen.
Outflow tract was dissected from E11.5 wild type mouse embryos and placed on collagen matrices as previously described. After 10 hours of attachment explants were incubated in 30 ng/300 μl thymosin β4 in PBS, PBS alone or thymosin β4 and 100 nM wortmanin. Cultures were carried out for 3-9 days at 37° C. 5% CO2 and fixed in 4% paraformaldehyde in PBS for 10 min at RT. Cells were counted for quantification of migration and distance using at least three separate explants under each condition for endothelial migration and eight separate explants for myocardial migration.
Paraformaldehyde-fixed explants were permeabilized for 10 min at RT with Permeabilize solution (10 mM PIPES pH6.8; 50 mMNaCl; 0.5% Triton X-100; 300 mM Sucrose; 3 mM MgCl2) and rinsed with PBS 2×5 min at RT. After a series of blocking and rinsing steps, detection antibodies were used and explants rinsed and incubated with Equilibration buffer (Anti-Fade kit) 10 min at room temperature. Explants were scooped to a glass microscope slide, covered, and examined by fluorescein microscopy. TUNEL assay was performed using ApopTag Plus Fluorescein In Situ Apoptosis detection kit (Intergen Company # S7111) as recommended.

In the case of COC[C@H]1OC(=O)c2coc3c2[C@@]1(C)C1=C(C3=O)[C@@H]2CCC(=O)[C@@]2(C)C[C@H]1OC(C)=O [wortmanin, reference compound], the “beating frequency upon inhibition of ILK” value is reported as “significant reduction” and the “myocardial cell migration upon inhibition of ILK” value is reported as “significant reduction”.
